Laboratory results from ChEMBL document CHEMBL5365398, “Structure-activity relationship study of central pyridine-derived TYK2 JH2 inhibitors: Optimization of the PK profile through C4' and C6 variations” (Bioorg Med Chem Lett, 2023).

Columns and labels:
in vitro [1] = details: mouse, liver microsomes
in vitro [2] = details: rat, liver microsomes
in vitro [3] = details: human, liver microsomes
in vitro [4] = details: human, Caco-2
in vitro [5] = details: human, liver microsomes; remark: listed apart in the source
in vitro [6] = details: mouse, liver microsomes; remark: listed apart in the source
in vivo [7] = details: mouse, po, 10 mg/kg
in vitro [8] = details: rat, liver microsomes; remark: listed apart in the source
in vivo [9] = details: mouse, po, 10 mg/kg; remark: listed apart in the source
in vivo [10] = details: mouse, po, 10 mg/kg; remark: listed apart in the source

[2H]C([2H])([2H])NC(=O)c1nnc(Nc2cccc(OC)n2)cc1Nc1nccc(-c2ncn(C)n2)c1OC
remaining at 10 min, 0.5 µM (in vitro [1]): 65% | remaining at 10 min, 0.5 µM (in vitro [2]): 71% | remaining at 10 min, 0.5 µM (in vitro [3]): 88%

[2H]C([2H])([2H])NC(=O)c1nnc(Nc2ccc(C(C)(C)O)cn2)cc1Nc1nccc(-c2ncc(F)cn2)c1OC
Papp A→B (in vitro [4]): 9.7 ×10⁻⁶ cm/s | half-life (in vitro [5]): > 2 h | half-life (in vitro [6]): > 2 h | remaining at 10 min, 0.5 µM (in vitro [1]): 83% | remaining at 10 min, 0.5 µM (in vitro [2]): 100% | AUC(0-t) (in vivo [7]): 34.2 µM·h | half-life (in vitro [8]): > 2 h | remaining at 10 min, 0.5 µM (in vitro [3]): 100% | bioavailability (in vivo [9]): 94% | Cmax (in vivo [10]): 15.2 µM

[2H]C([2H])([2H])NC(=O)c1nnc(NC(=O)C2CC2)cc1Nc1nccc(-c2ncc(F)cn2)c1OC
Papp A→B (in vitro [4]): 34.5 ×10⁻⁶ cm/s | remaining at 10 min, 0.5 µM (in vitro [1]): 100% | remaining at 10 min, 0.5 µM (in vitro [2]): 100% | remaining at 10 min, 0.5 µM (in vitro [3]): 89%
